# Values quoted from earlier work in US8617624B2, “Compositions, systems and methods for the diagnosis, prevention and treatment of disorders associated with azetidine-2-carboxylic acid” (priority 2006, dated 2013).
# Experiments:
# pregnant mice = settings: fed to pregnant mice
# hamsters = settings: exposure during pregnancy in hamsters
Compound,teratogenic effect (pregnant mice),teratogenic effect (hamsters),effect on wound healing (pigs),increase in plasma proline concentration (1 mmol proline/kg lean body mass),plasma proline increase when glucose also ingested (1 mmol proline/kg lean body mass with about 25 g of glucose),absorption of proline (ingestion)
"O=C(O)C1CCN1 (stereo not drawn) [Aze, Azetidine-2-carboxylic acid]",predisposes to cleft palate,"fetal weight abnormalities, tissue hemorrhages, cleft palate, retarded ossifications, and shortened bones",delayed wound healing,–,–,–
O=C(O)[C@@H]1CCCN1 [proline],–,–,–,approximately 13 fold,decreased by half,readily absorbed
